Measurements: patent US11077090B2, “Compounds and compositions and uses thereof” (Sunovion Pharmaceuticals Inc., priority 2016, dated 2021)

system: compound-treated mice; test: Neuropharmacological assay (SmartCube): behavioral activity signature and minimal effective dose; format: in vivo; conditions: Mus musculus, ip, MED = dose having 50% or more total activity, read-out: Potency: minimal effective dose (MED), binned
Outline: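 Video-recorded behavior is compared algorithmically against a reference-compound database, yielding class probabilities (best dose reported). Compounds given i.p. in NMP/PEG/propylene glycol 15 min pre-test at 3 doses; potency as MED, the dose (mpk, range usually 0.3–30) reaching ≥50% total activity.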

Row | SMILES | minimal effective dose [mg/kg]
1 | CC(C)C[C@@H]1OCc2ccccc2[C@@H]1N [Example 223] | 3 to 10
2 | CC(C)C[C@H]1OCc2ccccc2[C@@H]1N [Example 224] | 10 to 30
3 | Cc1ccc(Cl)c2c1[C@H](N)[C@H](C)OC2.Cl [Example 225] | 3 to 10
4 | Cc1cccc2c1[C@H](N)CO[C@@H]2C [Example 226] | 10 to 30
5 | Cc1cccc2c1[C@H](N)CO[C@H]2C [Example 227] | 3 to 10
6 | C[C@@H]1OCc2ccc(C(F)(F)F)cc2[C@@H]1N.Cl [Example 228] | 10 to 30
7 | C[C@H]1OCc2ccc(C(F)(F)F)cc2[C@@H]1N.Cl [Example 229] | 3 to 10
8 | COc1cccc2c1[C@H](N)[C@H](C)OC2.Cl [Example 230] | 3 to 10
9 | COc1cccc2c1[C@H](N)[C@@H](C)OC2.Cl [Example 231] | 10 to 30
10 | COc1ccc2c(c1)CO[C@H](C)[C@H]2N.Cl [Example 232] | 10 to 30
11 | COc1ccc2c(c1)CO[C@@H](C)[C@H]2N.Cl [Example 233] | > 30

same assay, conditions: i.p. 15 min before test, most efficacious dose(s)

Row | SMILES | AD: ADHD (probability of activity signature) | AG: analgesic (probability of activity signature) | AX: anxiolytic (probability of activity signature) | CE: cognitive enhancer (probability of activity signature) | DP: anti-depressant (probability of activity signature) | MS: mood stabilizer (probability of activity signature) | PS: anti-psychotic (probability of activity signature) | SD: sedative hypnotic (probability of activity signature) | UN: uncharacterized CNS activity (probability of activity signature)
12 | CC(C)C[C@@H]1OCc2ccccc2[C@@H]1N [Example 223] | + (LOQ ≤ + <5%) | + (LOQ ≤ + <5%) | ++ (5% ≤ ++ <25%) | + (LOQ ≤ + <5%) | ++ (5% ≤ ++ <25%) | + (LOQ ≤ + <5%) | + (LOQ ≤ + <5%) | ++ (5% ≤ ++ <25%) | +++ (25% ≤ +++ <50%)
13 | CC(C)C[C@H]1OCc2ccccc2[C@@H]1N [Example 224] | + (LOQ ≤ + <5%) | ++ (5% ≤ ++ <25%) | ++ (5% ≤ ++ <25%) | +++ (25% ≤ +++ <50%) | + (LOQ ≤ + <5%) | + (LOQ ≤ + <5%) | + (LOQ ≤ + <5%) | ++ (5% ≤ ++ <25%) | ++ (5% ≤ ++ <25%)
14 | Cc1ccc(Cl)c2c1[C@H](N)[C@H](C)OC2.Cl [Example 225] | + (LOQ ≤ + <5%) | ++ (5% ≤ ++ <25%) | ++ (5% ≤ ++ <25%) | ++ (5% ≤ ++ <25%) | ++ (5% ≤ ++ <25%) | + (LOQ ≤ + <5%) | ++ (5% ≤ ++ <25%) | ++ (5% ≤ ++ <25%) | ++++ (50% ≤ ++++)
15 | Cc1cccc2c1[C@H](N)CO[C@@H]2C [Example 226] | + (LOQ ≤ + <5%) | + (LOQ ≤ + <5%) | ++ (5% ≤ ++ <25%) | ++ (5% ≤ ++ <25%) | ++ (5% ≤ ++ <25%) | + (LOQ ≤ + <5%) | +++ (25% ≤ +++ <50%) | + (LOQ ≤ + <5%) | ++ (5% ≤ ++ <25%)
16 | Cc1cccc2c1[C@H](N)CO[C@H]2C [Example 227] | + (LOQ ≤ + <5%) | ++ (5% ≤ ++ <25%) | ++ (5% ≤ ++ <25%) | + (LOQ ≤ + <5%) | + (LOQ ≤ + <5%) | + (LOQ ≤ + <5%) | ++ (5% ≤ ++ <25%) | + (LOQ ≤ + <5%) | ++++ (50% ≤ ++++)
17 | C[C@@H]1OCc2ccc(C(F)(F)F)cc2[C@@H]1N.Cl [Example 228] | + (LOQ ≤ + <5%) | ++ (5% ≤ ++ <25%) | ++ (5% ≤ ++ <25%) | + (LOQ ≤ + <5%) | ++ (5% ≤ ++ <25%) | + (LOQ ≤ + <5%) | ++ (5% ≤ ++ <25%) | + (LOQ ≤ + <5%) | +++ (25% ≤ +++ <50%)
18 | C[C@H]1OCc2ccc(C(F)(F)F)cc2[C@@H]1N.Cl [Example 229] | + (LOQ ≤ + <5%) | + (LOQ ≤ + <5%) | ++ (5% ≤ ++ <25%) | ++ (5% ≤ ++ <25%) | ++ (5% ≤ ++ <25%) | + (LOQ ≤ + <5%) | ++ (5% ≤ ++ <25%) | + (LOQ ≤ + <5%) | +++ (25% ≤ +++ <50%)
19 | COc1cccc2c1[C@H](N)[C@H](C)OC2.Cl [Example 230] | + (LOQ ≤ + <5%) | + (LOQ ≤ + <5%) | ++ (5% ≤ ++ <25%) | ++ (5% ≤ ++ <25%) | + (LOQ ≤ + <5%) | + (LOQ ≤ + <5%) | ++ (5% ≤ ++ <25%) | + (LOQ ≤ + <5%) | ++++ (50% ≤ ++++)
20 | COc1cccc2c1[C@H](N)[C@@H](C)OC2.Cl [Example 231] | + (LOQ ≤ + <5%) | ++ (5% ≤ ++ <25%) | ++ (5% ≤ ++ <25%) | ++ (5% ≤ ++ <25%) | ++ (5% ≤ ++ <25%) | + (LOQ ≤ + <5%) | + (LOQ ≤ + <5%) | + (LOQ ≤ + <5%) | +++ (25% ≤ +++ <50%)
21 | COc1ccc2c(c1)CO[C@H](C)[C@H]2N.Cl [Example 232] | + (LOQ ≤ + <5%) | ++ (5% ≤ ++ <25%) | ++ (5% ≤ ++ <25%) | + (LOQ ≤ + <5%) | + (LOQ ≤ + <5%) | + (LOQ ≤ + <5%) | + (LOQ ≤ + <5%) | + (LOQ ≤ + <5%) | ++ (5% ≤ ++ <25%)
22 | COc1ccc2c(c1)CO[C@@H](C)[C@H]2N.Cl [Example 233] | + (LOQ ≤ + <5%) | ++ (5% ≤ ++ <25%) | ++ (5% ≤ ++ <25%) | ++ (5% ≤ ++ <25%) | + (LOQ ≤ + <5%) | + (LOQ ≤ + <5%) | + (LOQ ≤ + <5%) | + (LOQ ≤ + <5%) | + (LOQ ≤ + <5%)
